These results are taken from patent publication US20110182830A1, “INHALATION DRUG PRODUCTS, SYSTEMS AND USES” (Schering Corporation, priority 2008, published 2011).

Series [1] in a line: Andersen Cascade Impactor (ACI) with USP throat, aerodynamic particle size distribution, pMDI alone vs pMDI with chamber, continuous flow 28.3 L/min. The format is physicochemical. The following applies: for reduction in FPD (μg) as compared to the pMDI alone: pMDI with OPTICHAMBER
How it is done:
Pressurized MDI products were tested alone and as an inhalation system/drug product which included a pMDI in combination with one chamber such as the A[…]-STAT Plus™ (volume=148 mL), A[…]® (volume=[…]), VORTEX® AND OPTICHAMBER®.
An Andersen Cascade Impactor (ACI) with USP throat was used to measure aerodynamic particle size distribution. Two impactor configurations were used for the two flow rates. Plates 0 through 7 were used for sampling at 28.3 L/min; plates—1 through 6 were used for sampling at 60 L/min. The effective cut off diameters for the plates in each configuration were provided by the manufacturer. Total delivered dose values report the total mass of active ingredient recovered from the impactor (throat, plates and filter). Fine particle dose values report the total mass of active ingredient with aerodynamic diameter less than 4.7 μm.
FIGS. 1 and 2 show throat, fine particle dose and total delivered dose recoveries for both active ingredients, as measured by ACI under continuous flow at 28.3 L/min. Recoveries are shown for different spacer devices and the pMDI, as indicated in the legends. Data points represent mean values (n=5); error bars indicate one standard deviation.

For series [2] the following is noted: cited from earlier work.
The conditions of series [3]: cited from earlier work. This is another data set of the same source.
[4] abbreviates: pMDI with AEROCHAMBER Z-STAT PLUS.

As for `COc1ccc(CC(C)NCC(O)c2ccc(O)c(NC=O)c2)cc1.O.O.O=C(O)/C=C/C(=O)O` (racemic) [formoterol fumarate, (±)2-hydroxy-5-[(1RS)-1-hydroxy-2-[[(1RS)-2-(4-methoxyphenyl)-1methylethyl]-amino]ethyl] formanilide fumarate dihydrate], the “difference in fine particle dose (FPD, <4.7 μm) vs pMDI alone” value (from here on “difference in fine particle dose”) in series [1] (pMDI with AEROCHAMBER MAX) is given as not above 15%. The “difference in fine particle dose” value in series [1] (setting [4]) is given as “less than 5%”. Further, in series [1], the “reduction in FPD (μg) as compared to the pMDI alone” value is “about 30%”. Moreover, the “difference in fine particle dose” value in series [1] (pMDI with VORTEX) is on record as not above 20%. In series [2], the solubility in acetone result is on record as “practically insoluble”, the solubility in ethanol entry is on record as “sparingly soluble”, the solubility in isopropanol entry is reported as “sparingly soluble” and the solubility in methanol result was “soluble”. The solubility in water entry in series [2] is on record as “slightly soluble”. Moreover, in series [2] (diethyl ether), the “solubility in diethyl ether” value is listed as “practically insoluble”. Further, the “solubility in ethyl acetate” value in series [2] (ethyl acetate) is “practically insoluble”. The “solubility in glacial acetic acid” value in series [2] (glacial acetic acid) is reported as “freely soluble”.

`C[C@@H]1C[C@H]2[C@@H]3CCC4=CC(=O)C=C[C@]4(C)[C@@]3(Cl)[C@@H](O)C[C@]2(C)[C@@]1(OC(=O)c1ccco1)C(=O)CCl` [mometasone furoate, 9,21-Dichloro-11(beta), 17-dihydroxy-16(alpha)-methylpregna-1,4-diene-3,20-dione 17-(2 furoate)]: the “difference in fine particle dose” value in series [1] (pMDI with AEROCHAMBER MAX) is given as not above 15%. The “difference in fine particle dose” value in series [1] (setting [4]) is on record as “less than 5%”. Moreover, the “reduction in FPD (μg) as compared to the pMDI alone” value in series [1] is listed as “about 30%”. The “difference in fine particle dose” value in series [1] (pMDI with VORTEX) is not above 20%. Also, the “reduction of deposition in the throat portion of the ACI” value in series [1] (use of several of the chambers vs pMDI alone) is on record as “about 90%”. Moreover, in series [2], the solubility in acetone entry was “soluble”, the solubility in ethanol result is “slightly soluble”, the solubility in isopropanol entry is on record as “slightly soluble” and the solubility in methanol entry was “slightly soluble”. Moreover, the solubility in water entry in series [2] is listed as “practically insoluble”. In addition, the solubility in chloroform result in series [2] (chloroform) was “soluble”. For the same compound, the solubility in tetrahydrofuran entry in series [2] (tetrahydrofuran) is listed as “freely soluble”. The “partition coefficient between octanol and water” value in series [3] is “greater than 5000”.
